According to US11214803B2, “Modulators of YAP1 expression” (Ionis Pharmaceuticals, Inc., priority 2019, dated 2022):
Strand notation (5' to 3'): a small letter for the sugar, then the base; units joined by * are phosphorothioate-linked, units joined directly phosphodiester-linked; [ ] holds rarer units or linkages, { } end groups; capitals alone tell only the bases. k = constrained ethyl (cEt); [5mC] = 5-methylcytosine; d = 2'-deoxy (DNA)

Test system: Yap1 mRNA
Assay: Antisense inhibition of human Yap1 in A-431 cells by cEt gapmers, single dose (Example 3, RTS36584)
Format: cell-based
Settings: Table 8; A-431 cells, 5,000 cells per well, free uptake, 2,000 nM, approximately 48 hours; RTS36584; normalized to RIBOGREEN; Yap1 mRNA relative to untreated control cells
Outline: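 Free uptake, 2,000 nM, ~48 h, A-431 cells. Gapmers: 16-mer 3-10-3 cEt wings, PS backbone, 5-MeC. Readout qRT-PCR, RiboGreen-normalized, % UTC.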

Substance	YAP1 (% UTC)
958401 (antisense kA*kG*kT*dT*dA*dT*dT*d[5mC]*dA*dG*d[5mC]*dA*dG*k[5mC]*kT*kT) [Compound 958401]	19 % UTC
958403 (antisense k[5mC]*kA*kG*dT*dT*dT*dA*dT*dG*dT*dA*dG*dT*kA*kG*kT) [Compound 958403]	5 % UTC
958370 (antisense k[5mC]*kT*kT*dT*dA*dT*d[5mC]*dT*dA*dG*d[5mC]*dT*dT*kG*kG*kT) [Compound 958370]	7 % UTC
958420 (antisense kT*kT*k[5mC]*dA*dT*dA*dA*dT*d[5mC]*dT*dG*dA*d[5mC]*kT*kA*kG) [Compound 958420]	66 % UTC

Same assay, conditions: Table 9; A-431 cells, 5,000 cells per well, free uptake, 2,000 nM, approximately 48 hours; RTS36584; normalized to RIBOGREEN; Yap1 mRNA relative to untreated control cells

Substance	YAP1 (% UTC)
958776 (antisense kG*kG*kT*dA*d[5mC]*dT*d[5mC]*dT*d[5mC]*d[5mC]*dT*dT*d[5mC]*kA*kG*kA) [Compound 958776]	94 % UTC
958716 (antisense kA*kT*kG*dG*dA*d[5mC]*dT*dG*dT*dA*dT*dG*d[5mC]*kA*kG*k[5mC]) [Compound 958716]	84 % UTC
958721 (antisense kG*kT*kA*dG*dT*dA*dT*dA*dA*dT*dG*dA*dG*kT*kT*kA) [Compound 958721]	1 % UTC
958486 (kT*kT*kA*dG*dA*dG*d[5mC]*d[5mC]*dA*dA*d[5mC]*dT*dG*kT*kG*kA; antisense) [Compound 958486]	9 % UTC
958751 (antisense kT*k[5mC]*kA*dA*dT*dG*d[5mC]*dA*dG*dG*dA*dT*dT*k[5mC]*k[5mC]*kA) [Compound 958751]	30 % UTC

Same assay, conditions: Table 10; A-431 cells, 5,000 cells per well, free uptake, 2,000 nM oligonucleotide, approx. 48 hours; primer probe set RTS36584; Yap1 mRNA normalized to RIBOGREEN, percent of untreated control

Substance	YAP1 (% UTC)
958437 (antisense kA*kG*kG*d[5mC]*dA*d[5mC]*dT*d[5mC]*dG*dG*dA*d[5mC]*d[5mC]*kT*kG*k[5mC]) [Compound 958437]	84 % UTC
958792 (antisense kG*k[5mC]*k[5mC]*dA*dA*dT*dG*dG*dA*dG*dT*d[5mC]*dA*k[5mC]*k[5mC]*kA) [Compound 958792]	46 % UTC
958597 (k[5mC]*k[5mC]*k[5mC]*dA*dA*dT*dA*d[5mC]*dA*dA*d[5mC]*d[5mC]*dA*kA*kG*kA; antisense) [Compound 958597]	6 % UTC
958492 (kT*kG*kT*d[5mC]*dA*dG*dA*d[5mC]*d[5mC]*dA*dG*dT*dA*kA*kA*kT; antisense) [Compound 958492]	12 % UTC
958537 (k[5mC]*kA*kG*dG*dG*dT*d[5mC]*dA*dA*dT*dT*dT*dT*k[5mC]*kA*kG; antisense) [Compound 958537]	3 % UTC

Same assay, conditions: Table 11; A-431 cells, 5,000 cells per well, free uptake, 2,000 nM oligonucleotide, approx. 48 hours; primer probe set RTS36584; Yap1 mRNA normalized to RIBOGREEN, percent of untreated control

Substance	YAP1 (% UTC)
958578 (k[5mC]*kT*kT*dA*dA*dT*d[5mC]*dT*dG*dT*dG*dG*d[5mC]*kT*kA*k[5mC]; antisense) [Compound 958578]	4 % UTC

Same assay, conditions: Table 12; A-431 cells, 5,000 cells per well, free uptake, 2,000 nM modified oligonucleotide, approx. 48 hours; RTS36584; normalized to RIBOGREEN; Yap1 mRNA relative to untreated control cells

Substance	YAP1 (% UTC)
958764 (antisense kT*kG*kG*dG*dT*d[5mC]*dT*d[5mC]*dT*dT*dG*dA*dT*kT*kT*k[5mC]) [Compound 958764]	34 % UTC
958779 (antisense kT*k[5mC]*kG*dA*dA*dT*dA*dT*dA*dG*dA*dG*dG*k[5mC]*k[5mC]*kT) [Compound 958779]	80 % UTC
958474 (antisense kG*kT*kG*dT*d[5mC]*dT*d[5mC]*d[5mC]*dT*dT*dA*dG*dA*kT*k[5mC]*k[5mC]) [Compound 958474]	3 % UTC
958569 (kA*kG*k[5mC]*d[5mC]*dT*dT*dA*dG*dA*dG*dT*d[5mC]*dA*kA*kT*kT; antisense) [Compound 958569]	3 % UTC
958514 (kT*kA*k[5mC]*dT*dA*dG*dT*d[5mC]*dA*dT*dG*dT*dA*kT*kT*k[5mC]; antisense) [Compound 958514]	20 % UTC

Same assay, conditions: Table 13; A-431 cells, 5,000 cells per well, free uptake, 2,000 nM modified oligonucleotide, approx. 48 hours; RTS36584; normalized to RIBOGREEN; Yap1 mRNA relative to untreated control cells

Substance	YAP1 (% UTC)
958815 (kG*kG*kG*d[5mC]*dG*dA*dG*dG*dA*dG*dA*d[5mC]*dA*kG*kG*kT; antisense) [Compound 958815]	16 % UTC
958655 (kG*k[5mC]*kA*dA*dT*d[5mC]*dT*dG*dT*dG*dA*dT*d[5mC]*k[5mC]*k[5mC]*kA; antisense) [Compound 958655]	12 % UTC
958610 (antisense kA*kG*kG*dT*dA*dA*d[5mC]*dA*dT*dT*dG*dG*dT*kA*k[5mC]*kT) [Compound 958610]	34 % UTC
958660 (k[5mC]*k[5mC]*k[5mC]*dA*d[5mC]*dT*dG*dG*dG*dT*dT*dT*dG*kT*k[5mC]*k[5mC]; antisense) [Compound 958660]	106 % UTC
958445 (antisense kG*kG*k[5mC]*dT*dA*d[5mC]*dG*d[5mC]*d[5mC]*d[5mC]*dG*dG*dA*k[5mC]*kG*k[5mC]) [Compound 958445]	63 % UTC
958730 (antisense k[5mC]*kT*k[5mC]*dT*dG*dT*d[5mC]*dA*dG*dT*dT*dA*dT*k[5mC]*k[5mC]*kT) [Compound 958730]	4 % UTC
958790 (antisense kG*kA*kA*dA*dA*dG*dA*d[5mC]*dG*dA*d[5mC]*dA*d[5mC]*kA*kG*kT) [Compound 958790]	68 % UTC

Same assay, conditions: Table 26; Yap1 mRNA by 3-10-3 cEt gapmers targeting SEQ ID NO.: 1, and 2; percent of untreated control

Substance	YAP1 (% UTC)
1074284 (antisense k[5mC]*kA*kA*dA*dA*d[5mC]*dG*dA*dG*dG*dG*dT*d[5mC]*kA*kA*kG) [compound 1074284]	21 % UTC
1075308 (antisense kA*kA*kT*dT*dA*dA*dA*d[5mC]*dG*dA*dA*dA*d[5mC]*kA*k[5mC]*kG) [compound 1075308]	97 % UTC
1074636 (antisense kA*kT*k[5mC]*dT*dA*dT*d[5mC]*dT*dT*d[5mC]*d[5mC]*d[5mC]*dA*kA*kG*k[5mC]) [compound 1074636]	56 % UTC
1074796 (k[5mC]*kT*k[5mC]*d[5mC]*dA*dA*dA*dT*d[5mC]*dA*dA*dT*dG*kT*kG*k[5mC]; antisense) [compound 1074796]	22 % UTC
1075564 (kA*kT*kA*dT*dA*dA*d[5mC]*dA*dG*dG*d[5mC]*d[5mC]*dA*k[5mC]*k[5mC]*kA; antisense) [compound 1075564]	81 % UTC
1074924 (antisense k[5mC]*k[5mC]*kT*dG*d[5mC]*dA*dA*dA*dT*dA*dG*dG*dA*kG*kA*kG) [compound 1074924]	87 % UTC
1074572 (DNA kT*kT*kA*dT*dG*dA*dA*d[5mC]*d[5mC]*dT*dA*d[5mC]*dT*k[5mC]*kA*k[5mC]) [compound 1074572]	17 % UTC

Same assay, conditions: Table 28; Yap1 mRNA as percent of untreated control; 3-10-3 cEt gapmers targeting SEQ ID NO.: 1, and 2

Substance	YAP1 (% UTC)
1075214 (kA*kA*k[5mC]*dA*dA*dT*dA*dA*dA*dG*dG*dG*dT*k[5mC]*k[5mC]*kT; antisense) [compound 1075214]	45 % UTC
1075182 (kG*kA*kT*dA*dT*dT*dA*dT*dA*dT*dT*dA*d[5mC]*kT*kA*k[5mC]; antisense) [compound 1075182]	61 % UTC

Same assay, conditions: Table 29; Yap1 mRNA as percent of untreated control; 3-10-3 cEt gapmers targeting SEQ ID NO.: 1, and 2

Substance	YAP1 (% UTC)
1076111 (kA*kA*kT*dT*dA*dG*dT*dT*dA*dG*dG*dA*dT*kA*kT*k[5mC]; antisense) [compound 1076111]	67 % UTC

Same assay, conditions: Table 34; Yap1 mRNA as percent of untreated control; 3-10-3 cEt gapmers targeting SEQ ID NO: 1 and 2; single dose

Substance	YAP1 (% UTC)
1074868 (kG*kT*kA*d[5mC]*d[5mC]*dT*dA*dA*d[5mC]*dA*dT*dA*dT*kG*kA*kG; antisense) [compound 1074868]	74 % UTC
1076180 (kA*kT*kA*dA*dT*dT*dA*dG*d[5mC]*d[5mC]*dA*dA*d[5mC]*k[5mC]*kA*k[5mC]; antisense) [compound 1076180]	42 % UTC
1076148 (kT*kA*kT*dT*dA*dA*d[5mC]*dT*d[5mC]*dA*d[5mC]*dG*dA*kA*kG*kA; antisense) [compound 1076148]	52 % UTC
1075092 (kT*kT*kA*dA*dA*dA*d[5mC]*dA*dA*d[5mC]*dG*dA*dA*kT*kG*kA; antisense) [compound 1075092]	63 % UTC
1076052 (kG*k[5mC]*kA*dA*dT*dA*dA*dA*dG*d[5mC]*dT*dG*dA*kA*k[5mC]*kT; antisense) [compound 1076052]	23 % UTC
1074644 (antisense kA*kT*kT*dG*dA*dA*dG*dG*dG*d[5mC]*d[5mC]*dA*dA*kA*kA*kT) [compound 1074644]	93 % UTC

Same assay, conditions: Table 35; Yap1 mRNA as percent of untreated control; 3-10-3 cEt gapmers targeting SEQ ID NO: 1 and 2; single dose

Substance	YAP1 (% UTC)
1074709 (antisense kT*k[5mC]*kT*dA*dG*dA*dA*d[5mC]*dA*dG*d[5mC]*dT*dG*k[5mC]*k[5mC]*kT) [compound 1074709]	71 % UTC
1075157 (k[5mC]*k[5mC]*kA*dG*dA*dA*dA*dA*dT*d[5mC]*dA*dT*dA*kG*kT*kA; antisense) [compound 1075157]	19 % UTC
1074325 (antisense k[5mC]*kG*k[5mC]*dA*dG*dG*dG*d[5mC]*dT*dA*dA*d[5mC]*dT*k[5mC]*k[5mC]*kT) [compound 1074325]	42 % UTC
1075125 (k[5mC]*kT*kT*dA*dA*dG*dG*dT*dA*d[5mC]*dA*dA*dG*kG*k[5mC]*kA; antisense) [compound 1075125]	84 % UTC
